# Laboratory results: BigSolDB 2.1
structure (smiles),measurement,setting,value
C=CC(=O)Nc1cc(Nc2nccc(-c3cn(C)c4ccccc34)n2)c(OC)cc1N(C)CCN(C)C,solubility (mole fraction),"in PEG-400, 298.2 K",0.00214
same,solubility (mole fraction),"in PEG-400, 303.2 K",0.00307
same,solubility (mole fraction),"in PEG-400, 308.2 K",0.00421
same,solubility (mole fraction),"in PEG-400, 313.2 K",0.00583
same,solubility (mole fraction),"in PEG-400, 318.2 K",0.00733
same,solubility (mole fraction),"in dichloromethane, 298.2 K",0.000939
same,solubility (mole fraction),"in dichloromethane, 303.2 K",0.0014
same,solubility (mole fraction),"in dichloromethane, 308.2 K",0.00196
same,solubility (mole fraction),"in dichloromethane, 313.2 K",0.0028
same,solubility (mole fraction),"in dichloromethane, 318.2 K",0.00366
same,solubility (mole fraction),"in ethanol, 298.2 K",0.000472
same,solubility (mole fraction),"in ethanol, 303.2 K",0.000703
same,solubility (mole fraction),"in ethanol, 308.2 K",0.000989
same,solubility (mole fraction),"in ethanol, 313.2 K",0.00131
same,solubility (mole fraction),"in ethanol, 318.2 K",0.00176
same,solubility (mole fraction),"in ethyl acetate, 298.2 K",0.00129
same,solubility (mole fraction),"in ethyl acetate, 303.2 K",0.00174
same,solubility (mole fraction),"in ethyl acetate, 308.2 K",0.00241
same,solubility (mole fraction),"in ethyl acetate, 313.2 K",0.0031
same,solubility (mole fraction),"in ethyl acetate, 318.2 K",0.00398
same,solubility (mole fraction),"in isopropyl myristate, 298.2 K",0.000794
same,solubility (mole fraction),"in isopropyl myristate, 303.2 K",0.00122
same,solubility (mole fraction),"in isopropyl myristate, 308.2 K",0.00186
same,solubility (mole fraction),"in isopropyl myristate, 313.2 K",0.00263
same,solubility (mole fraction),"in isopropyl myristate, 318.2 K",0.00344
same,solubility (mole fraction),"in propylene glycol, 298.2 K",0.000766
same,solubility (mole fraction),"in propylene glycol, 303.2 K",0.00106
same,solubility (mole fraction),"in propylene glycol, 308.2 K",0.00143
same,solubility (mole fraction),"in propylene glycol, 313.2 K",0.00206
same,solubility (mole fraction),"in propylene glycol, 318.2 K",0.00265
same,solubility (mole fraction),"in transcutol, 298.2 K",0.00144
same,solubility (mole fraction),"in transcutol, 303.2 K",0.0022
same,solubility (mole fraction),"in transcutol, 308.2 K",0.00337
same,solubility (mole fraction),"in transcutol, 313.2 K",0.0046
same,solubility (mole fraction),"in transcutol, 318.2 K",0.00638
same,solubility (mole fraction),"in water, 298.2 K",1.85e-05
same,solubility (mole fraction),"in water, 303.2 K",2.24e-05
same,solubility (mole fraction),"in water, 308.2 K",2.72e-05
same,solubility (mole fraction),"in water, 313.2 K",3.18e-05
same,solubility (mole fraction),"in water, 318.2 K",3.69e-05
